Assay results reported in patent publication EP1434624B1, “2-AMINO-6-(2,4,5-SUBSTITUTED-PHENYL)-PYRIDINES FOR USE AS NITRIC OXIDE SYNTHASE INHIBITORS” (Pfizer Products Inc., priority 2001, dated 2003).
Like-named read-outs stand apart in the source and are kept apart here.

Biological target: neuronal NOS (Homo sapiens, UniProt P29475)
Test: Inhibition of NO synthase activity by conversion of [3H]arginine to [3H]citrulline (crude enzyme lysate)
Format: biochemical
Experimental: The ability of the compounds of the present invention to inhibit neuronal NOS may be determined using the procedure described by Bredt and Snyder in Proc. Natl. Acad. Sci. U.S.A., 87, 682-685 (1990).
As indicated above, inhibition of NO synthase activity may be determined by conversion of [^3H]arginine to [^3H]citrulline as described by Bredt and Snyder in Proc. Natl. Acad. Sci. U.S.A., 87, 682-685 (1990), but with slight modification. Specifically, 10 uL of crude enzyme lysate and 10 uL of 350 nM [^3H]arginine are added to 100 uL of buffer containing 10 mM Hepes, 0.32 M sucrose, 0.75 mM NADPH, 0.1 mM EDTA, 0.63 mM CaCl2, 1 mM dithiothreitol, 30 nM calmodulin(CaM), 2 uM Flavin Adenin dinucleotie (FAD), 2 uM Flavin mononucleotide (FMN), 3 uM tetrahydrobiopterin (H4B) and trace bovine serum albumin in 96-well plate format. After incubation for 50 minutes at 30°C, assays are terminated by application to 75 uL BioRex-70 resin (H^+ form) and eluted with 90 uL of water. [^3H]citrulline may be quantified by liquid scintillation spectroscopy of the total flow-through.

neuronal NOS, sequence (P29475 whole entry): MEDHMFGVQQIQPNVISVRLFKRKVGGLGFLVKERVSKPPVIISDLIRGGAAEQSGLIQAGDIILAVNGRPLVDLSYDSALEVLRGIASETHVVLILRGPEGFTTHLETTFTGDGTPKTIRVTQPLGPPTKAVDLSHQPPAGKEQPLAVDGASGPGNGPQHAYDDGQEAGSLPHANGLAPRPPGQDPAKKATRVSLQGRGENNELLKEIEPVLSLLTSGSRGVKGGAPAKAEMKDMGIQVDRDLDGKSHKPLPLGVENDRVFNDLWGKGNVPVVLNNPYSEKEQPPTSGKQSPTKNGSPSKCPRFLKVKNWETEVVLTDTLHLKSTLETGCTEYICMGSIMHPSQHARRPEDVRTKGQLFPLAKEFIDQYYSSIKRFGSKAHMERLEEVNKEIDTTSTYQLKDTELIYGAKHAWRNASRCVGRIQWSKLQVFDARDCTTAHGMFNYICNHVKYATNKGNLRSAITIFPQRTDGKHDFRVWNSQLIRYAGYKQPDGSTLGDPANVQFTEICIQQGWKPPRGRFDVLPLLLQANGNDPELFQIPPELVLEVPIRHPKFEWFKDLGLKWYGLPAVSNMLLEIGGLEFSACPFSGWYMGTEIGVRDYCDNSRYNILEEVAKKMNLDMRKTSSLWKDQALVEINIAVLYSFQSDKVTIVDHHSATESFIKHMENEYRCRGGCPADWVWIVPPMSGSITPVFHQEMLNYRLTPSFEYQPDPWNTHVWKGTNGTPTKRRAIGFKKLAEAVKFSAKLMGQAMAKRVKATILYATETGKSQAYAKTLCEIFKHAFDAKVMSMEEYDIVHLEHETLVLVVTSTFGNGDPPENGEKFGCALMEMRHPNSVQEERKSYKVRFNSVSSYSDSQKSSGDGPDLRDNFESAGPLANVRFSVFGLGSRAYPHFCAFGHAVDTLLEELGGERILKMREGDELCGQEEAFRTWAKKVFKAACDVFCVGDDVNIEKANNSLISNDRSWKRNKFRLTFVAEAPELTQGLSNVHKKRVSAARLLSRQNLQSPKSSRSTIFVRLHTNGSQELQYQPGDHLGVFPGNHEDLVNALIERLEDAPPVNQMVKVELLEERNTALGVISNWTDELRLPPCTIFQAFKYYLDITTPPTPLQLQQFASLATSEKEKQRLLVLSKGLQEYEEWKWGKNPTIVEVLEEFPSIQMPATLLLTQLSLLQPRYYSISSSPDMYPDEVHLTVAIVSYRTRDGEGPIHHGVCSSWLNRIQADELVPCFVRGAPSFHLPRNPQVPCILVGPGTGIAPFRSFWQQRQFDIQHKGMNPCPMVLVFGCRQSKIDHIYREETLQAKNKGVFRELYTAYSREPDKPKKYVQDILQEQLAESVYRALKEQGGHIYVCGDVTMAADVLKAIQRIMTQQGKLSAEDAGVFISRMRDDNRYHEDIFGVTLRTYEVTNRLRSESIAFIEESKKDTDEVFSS

| IC50 (crude enzyme lysate, [3H]arginine to [3H]citrulline, 50 minutes at 30°C, read-out: IC50 for inhibition of neuronal NOS) [nM] | IC50 [nM] | SMILES |
| --- | --- | --- |
| 36 | – | CCc1cc(-c2cccc(N)n2)c(OC)cc1OC1CNC1 [Example 1, 6-[4-(3-azetidinoxy)-5-ethyl-2-methoxy-phenyl]-pyridin-2-ylamine] |
| – | 30 | CCc1cc(-c2cccc(N)n2)c(OC)cc1CNC [Example 3, 6-[4-(N-methylaminomethyl)-5-ethyl-2-methoxy-phenyl]-pyridin-2-ylamine] |
